Reference: patent publication US20080009415A1, “Fungicidal Mixtures” (BASF Aktiengesellschaft, priority 2004, published 2008)

System: Alternaria solani
Assay: Activity against early blight of tomato caused by Alternaria solani
Assay type: in vivo
Conditions: single active compound, leaves sprayed to runoff, infected next day, assessed after 5 days, efficacy in % of untreated control (Abbot)
Procedure: The active compounds were prepared separately or jointly as a stock solution with 25 mg of active compound which was made up to 10 ml using a mixture of acetone and/or DMSO and the emulsifier Uniperol®) EL (wetting agent having emulsifying and dispersing action based on ethoxylated alkylphenols) in a volume ratio of solvent/emulsifier of 99 to 1. The mixture was then made up with water to 100 ml. This stock solution was diluted with the solvent/emulsifier/water mixture described to the concentration of active compounds stated below.
The visually determined percentages of infected leaf areas were converted into efficacies in % of the untreated control:
The efficacy (E) is calculated as follows using Abbot's formula: E=(1−α/β)·100 α corresponds to the fungicidal infection of the treated plants in % and β corresponds to the fungicidal infection of the untreated (control) plants in % An efficacy of 0 means that the infection level of the treated plants corresponds to that of the untreated control plants; an efficacy of 100 means that the treated plants were not infected.
The expected efficacies of mixtures of active compounds were determined using Colby's formula (Colby, S. R. “Calculating synergistic and antagonistic responses of herbicide combinations”, Weeds, 15, 20-22, 1967) and compared with the observed efficacies.
Colby's formula: E=x+y−x·y/100
E expected efficacy, expressed in % of the untreated control, when using the mixture of the active compounds A and B at the concentrations a and b x efficacy, expressed in % of the untreated control, when using the active compound A at the concentration a y efficacy, expressed in % of the untreated control, when using the active compound B at the concentration b Use Example—Activity Against Early Blight of Tomato Caused by Alternaria solani Leaves of potted plants of the cultivar “Goldene Königin” were sprayed to runoff point with an aqueous suspension having the concentration of active compound stated below. […]

For `CO/C=C(/C(=O)OC)c1ccccc1CO/N=C(C)/C=C/c1ccc(Cl)cc1` [enestroburin (I), methyl 2-{2-[3-(4-chlorophenyl)-1-methylallylideneaminooxymethyl]phenyl}-3-methoxyacrylate], the “Observed efficacy (%)” value (Conc. 4 ppm) was 22%.

With `COc1cc(C)c(C(=O)c2c(OC)ccc(Br)c2C)c(OC)c1OC` [metrafenone (II-41), 3′-bromo-2,3,4,6′-tetramethoxy-2′,6-dimethylbenzophenone] the “Observed efficacy (%)” value (Conc. 1 ppm) was 0% and the “Observed efficacy (%)” value (Conc. 4 ppm) was 0%.
